Data: US20100286145A1, “ISOPHTHALAMIDE DERIVATIVES INHIBITING BETA-SECRETASE ACTIVITY” (CoMentis, Inc., priority 2007, published 2010)
Like-named read-outs stand apart in the source and are kept apart here.

Target: memapsin 2 (Homo sapiens, UniProt P56817)
Assay: Inhibition of memapsin 2 beta-secretase activity (fluorogenic substrate FS-2)
Type: biochemical
Details: memapsin 2, pH 4, 37° C., read-out: M2Ki
Procedure: Potency of compounds were determined by measurement of their inhibition of memapsin 2 activity toward a fluorescent substrate. Kinetic inhibition experiments were performed using the procedure as described in Ermolieff, et al. (Biochemistry 39:12450-12456 (2000), the teachings of which are incorporated hereby in their entirety). Briefly, assays were performed at pH 4, 37° C., by pre-incubation of memapsin 2 enzyme with compound for 20 minutes. Activity measurements were initiated by addition of a fluorogenic substrate FS-2 (Bachem Americas, Torrance, Calif.) MCA-SEVNLDAEFR-DNP (SEQ ID NO.: 2). The substrate was derived from 10 amino acids of the human amyloid precursor protein (APP), with the Swedish variant amino acids at the beta-secretase cleavage site. The terminal amino acid was modified from arginine to lysine to facilitate derivatization with a functional group for detection by autofluorescence. The amino acid sequence of the “core” peptide of the substrate is SEVNLDAEFK (SEQ ID NO.: 3). The amino terminus was derivatized with (7-methoxycoumarin-4-yl)acetyl (MCA), and the epsilon amine of the lysine side chain of the terminal residue (K in sequence SEVNLDAEFK (SEQ ID NO.: 3)) was derivatized with 2,4-dinitorphenyl (DNP).
Fluorescent signal increase over time was measured as a rate of hydrolysis of the peptide substrate. Inhibition of hydrolytic rate was expressed relative to uninhibited controls and fit to a model for tight-binding inhibitors (J. Bieth, in “Proteinase Inhibitors,” Bayer Symposium V, 463-469, 1974, which is herein incorporated by reference for all purposes in its entirety).

Chain of memapsin 2 (P56817 46-501): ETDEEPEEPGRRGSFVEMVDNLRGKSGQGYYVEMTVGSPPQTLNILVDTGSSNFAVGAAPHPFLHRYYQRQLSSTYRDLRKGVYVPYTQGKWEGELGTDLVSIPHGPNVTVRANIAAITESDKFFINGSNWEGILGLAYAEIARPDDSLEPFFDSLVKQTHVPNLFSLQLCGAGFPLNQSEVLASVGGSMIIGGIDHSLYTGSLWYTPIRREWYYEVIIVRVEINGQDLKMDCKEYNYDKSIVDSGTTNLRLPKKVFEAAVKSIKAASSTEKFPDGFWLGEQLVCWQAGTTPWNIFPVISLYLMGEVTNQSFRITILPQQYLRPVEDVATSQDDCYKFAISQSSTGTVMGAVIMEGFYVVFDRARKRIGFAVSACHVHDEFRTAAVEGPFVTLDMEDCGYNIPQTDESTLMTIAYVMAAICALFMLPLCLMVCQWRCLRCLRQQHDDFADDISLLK

Ki (20 minutes pre-incubation)	Ki (fluorogenic substrate FS-2)	SMILES
< 0.3 µM		COC(=O)[C@H](CO)NC(=O)c1cc(C(=O)N[C@@H](Cc2ccccc2)[C@H](O)CNCc2cccc(OC)c2)cc(C(=O)N(C)Cc2nc(C)cs2)c1 [Compound 62, (S)-methyl 3-hydroxy-2-(3-((2S,3R)-3-hydroxy-4-(3-methoxybenzylamino)-1-phenylbutan-2-ylcarbamoyl)-5-(methyl((4-methylthiazol-2-yl)methyl)carbamoyl)benzamido)propanoate]
	> 0.501 µM	COc1cccc(CNC[C@@H](O)[C@H](Cc2ccccc2)NC(=O)c2cc(C(=O)N(C)Cc3nc(C)cs3)cc(C3CCC(O)C3)c2)c1 (stereo partly drawn) [Compound 307, N1-((2S,3R)-3-hydroxy-4-(3-methoxybenzylamino)-1-phenylbutan-2-yl)-5-(3-hydroxycyclopentyl)-N3-methyl-N3-((4-methylthiazol-2-yl)methyl)isophthalamide]
	< 0.3 µM	COc1cccc(CNC[C@@H](O)[C@H](Cc2cc(F)cc(F)c2)NC(=O)c2cc(C(C)=O)cc(C(=O)N[C@H](C)c3ccccc3)c2)c1 [Compound 306, 5-acetyl-N1-((2S,3R)-1-(3,5-difluorophenyl)-3-hydroxy-4-(3-methoxybenzylamino)butan-2-yl)-N3-((R)-1-phenylethyl)isophthalamide]
0.301 to 0.5 µM		COc1cccc(CNC[C@@H](O)[C@H](Cc2ccccc2)NC(=O)c2cccc(C(=O)N(C)Cc3cccc(C)n3)c2)c1 [Compound 108, N1-((2S,3R)-3-hydroxy-4-(3-methoxybenzylamino)-1-phenylbutan-2-yl)-N3-methyl-N3-((6-methylpyridin-2-yl)methyl)isophthalamide]
	< 0.3 µM	CC(C)c1cncc(CNC[C@@H](O)[C@H](Cc2ccccc2)NC(=O)c2cccc(C(=O)N(C)Cc3nccs3)c2)c1 [Compound 318, N1-((2S,3R)-3-hydroxy-4-((5-isopropylpyridin-3-yl)methylamino)-1-phenylbutan-2-yl)-N3-methyl-N3-(thiazol-2-ylmethyl)isophthalamide]
< 0.3 µM		C=C(C)c1cc(O)cc(CNC[C@@H](O)[C@H](Cc2ccccc2)NC(=O)c2cccc(C(=O)N(C)Cc3nc(C)cs3)c2)c1 [Compound 159, N1-((2S,3R)-3-hydroxy-4-(3-hydroxy-5-(prop-1-en-2-yl)benzylamino)-1-phenylbutan-2-yl)-N3-methyl-N3-((4-methylthiazol-2-yl)methyl)isophthalamide]
> 0.501 µM		COc1cccc(CNC[C@@H](O)[C@H](Cc2ccccc2)NC(=O)c2cccc(C(=O)N(C)Cc3ccccn3)c2)c1 [Compound 45, N1-((2S,3R)-3-hydroxy-4-(3-methoxybenzylamino)-1-phenylbutan-2-yl)-N3-methyl-N3-(pyridin-2-ylmethyl)isophthalamide]
< 0.3 µM		CNc1cc(C(=O)N[C@@H](Cc2ccccc2)[C@H](O)CNCc2cccc(OC)c2)cc(C(=O)N(C)Cc2nc(C)cs2)c1 [Compound 76, N1-((2S,3R)-3-hydroxy-4-(3-methoxybenzylamino)-1-phenylbutan-2-yl)-N3-methyl-5-(methylamino)-N3-((4-methylthiazol-2-yl)methyl)isophthalamide]
> 0.501 µM		COC(=O)c1coc(-c2cc(C(=O)N[C@@H](Cc3ccccc3)[C@H](O)CNCc3cccc(OC)c3)cc(C(=O)N(C)Cc3nc(C)cs3)c2)n1 [Compound 66, methyl 2-(3-((2S,3R)-3-hydroxy-4-(3-methoxybenzylamino)-1-phenylbutan-2-ylcarbamoyl)-5-(methyl((4-methylthiazol-2-yl)methyl)carbamoyl)phenyl)oxazole-4-carboxylate]
> 0.501 µM		COc1cccc(CNC[C@@H](O)[C@H](Cc2ccccc2)NC(=O)c2cccc(C(=O)N(C)Cc3nccc(C)n3)c2)c1 [Compound 136, N1-((2S,3R)-3-hydroxy-4-(3-methoxybenzylamino)-1-phenylbutan-2-yl)-N3-methyl-N3-((4-methylpyrimidin-2-yl)methyl)isophthalamide]

More lines, now with the values behind:

SMILES	Ki (20 minutes pre-incubation)	Ki (fluorogenic substrate FS-2)
CC(C)c1cncc(CNC[C@@H](O)[C@H](Cc2ccccc2)NC(=O)c2cccc(C(=O)N(C)Cc3nc(C(F)F)cs3)c2)c1 [Compound 285, N1-((4-(difluoromethyl)thiazol-2-yl)methyl)-N3-((2S,3R)-3-hydroxy-4-((5-isopropylpyridin-3-yl)methylamino)-1-phenylbutan-2-yl)-N1-methylisophthalamide]		< 0.3 µM
Cc1csc(CN(C)C(=O)c2cccc(C(=O)N[C@@H](Cc3ccccc3)[C@H](O)CNCc3cccnc3)c2)n1 [Compound 15, N1-((2S,3R)-3-hydroxy-1-phenyl-4-(pyridin-3-ylmethylamino)butan-2-yl)-N3-methyl-N3-((4-methylthiazol-2-yl)methyl)isophthalamide]	> 0.501 µM	
Cc1csc(CN(C)C(=O)c2cccc(C(=O)N[C@@H](Cc3ccccc3)[C@H](O)CNCc3ccc(C(F)(F)F)nc3)c2)n1 [Compound 7, N1-((2S,3R)-3-hydroxy-1-phenyl-4-((6-(trifluoromethyl)pyridin-3-yl)methylamino)butan-2-yl)-N3-methyl-N3-((4-methylthiazol-2-yl)methyl)isophthalamide]	> 0.501 µM	
COCCn1ncc(CNC[C@@H](O)[C@H](Cc2ccccc2)NC(=O)c2cccc(C(=O)N(C)Cc3nc(C)cs3)c2)c1C [Compound 132, N1-((2S,3R)-3-hydroxy-4-((1-(2-methoxyethyl)-5-methyl-1H-pyrazol-4-yl)methylamino)-1-phenylbutan-2-yl)-N3-methyl-N3-((4-methylthiazol-2-yl)methyl)isophthalamide]	> 0.501 µM	
Cc1csc(CN(C)C(=O)c2cc(C(=O)N[C@@H](Cc3ccccc3)[C@H](O)CNCc3cncc(C(C)C)c3)cc(-c3cn[nH]c3)c2)n1 [Compound 295, N1-((2S,3R)-3-hydroxy-4-((5-isopropylpyridin-3-yl)methylamino)-1-phenylbutan-2-yl)-N3-methyl-N3-((4-methylthiazol-2-yl)methyl)-5-(1H-pyrazol-4-yl)isophthalamide]		< 0.3 µM
CN(Cc1nc(CF)cs1)C(=O)c1cccc(C(=O)N[C@@H](Cc2ccccc2)[C@H](O)CNCc2cncc(C(C)(C)F)c2)c1 [Compound 281, N1-((4-(fluoromethyl)thiazol-2-yl)methyl)-N3-((2S,3R)-4-((5-(2-fluoropropan-2-yl)pyridin-3-yl)methylamino)-3-hydroxy-1-phenylbutan-2-yl)-N1-methylisophthalamide]		< 0.3 µM
Cc1csc(CN(C)C(=O)c2cc(C(=O)N[C@@H](Cc3ccccc3)[C@H](O)CNCc3cccc(C(F)(F)F)c3)cc(-c3cnco3)c2)n1 [Compound 219, N1-((2S,3R)-3-hydroxy-1-phenyl-4-(3-(trifluoromethyl)benzylamino)butan-2-yl)-N3-methyl-N3-((4-methylthiazol-2-yl)methyl)-5-(oxazol-5-yl)isophthalamide]		< 0.3 µM
Cc1csc(CN(C)C(=O)c2cccc(C(=O)N[C@@H](Cc3ccccc3)[C@@H](O)CNCc3cncc(C(C)C)c3)c2)n1 [Compound 147, N1-((2S,3S)-3-hydroxy-4-((5-isopropylpyridin-3-yl)methylamino)-1-phenylbutan-2-yl)-N3-methyl-N3-((4-methylthiazol-2-yl)methyl)isophthalamide]	> 0.501 µM	
C=C(C)c1cncc(C(=O)NC[C@@H](O)[C@H](Cc2ccccc2)NC(=O)c2cccc(C(=O)N(C)Cc3nc(C)cs3)c2)c1 [Compound 288, N1-((2S,3R)-3-hydroxy-1-phenyl-4-(5-(prop-1-en-2-yl)nicotinamido)butan-2-yl)-N3-methyl-N3-((4-methylthiazol-2-yl)methyl)isophthalamide]		> 0.501 µM
